# Publication PMC8041276 (ACS Chemical Neuroscience, 2021)
# Tests used:
# CYP2D6 = target: T1, CYP2D6 (Homo sapiens, UniProt P10635); assay: CYP2D6 P450-Glo luminescent inhibition assay; format: in vitro ADME; details: 0.01–25 μM
# T1 construct: purchased Promega (Madison, WI, USA)
# Text: The luminescent CYP3A4 P450-Glo and CYP2D6 P450-Glo assays and protocols were provided by Promega (Madison, WI, USA). The P450-Glo systems based on the conversion proluciferins, derivatives of beetle luciferin [(4S)-4,5-dihydro-2-(6′-hydroxy-2′-benzothiazolyl)-4-thiazolecarboxylic acid] into D-luciferin were catalyzed by respective CYP isoform. D-Luciferin is formed and detected in a second reaction with the luciferin detection reagent (LDR). The amount of light produced in the second reaction is proportional to CYP activity.
# The stock solutions (10 mM) of the references ketoconazole (KE), quinidine (QD), and examined compounds were performed in DMSO. The 4× concentrated dilutions were prepared before the assays. […]
# The CYPs, proluciferin, and examined compounds (25 μL/well) were preincubated first for 5 min, and next the NADPH regeneration system was added (25 μL) to start the reaction. […] The control reactions for measuring the 100% of CYPs activity and minus-CYP negative control reactions for measure background luminescence were also prepared. […] Finally, LDR was added (50 μL/well), and after 20 min of incubation in room temperature the luminescence signal was measured with a microplate reader (EnSpire, PerkinElmer) in luminescence mode. […] The IC50 values and were calculated using GraphPad Prism 5 software.
# 5-HT6R = 5-HT6R (Homo sapiens, UniProt P50406); assay: Inhibition of 5-CT-stimulated cAMP production in 1321N1 cells; format: cell-based; design: expressed in transfected cells; details: antagonism of 5-CT (1000 nM)-stimulated cAMP
# Protocol: The effect of compounds 18, 22, 27, and 28 on adenylate cyclase was examined in 1321N1 cells expressing the 5-HT6R.
# The properties of compounds 18, 22, 27, 28 to inhibit cAMP production induced by 5-CT (1000 nM), a 5-HT6R agonist, were evaluated. Compounds were tested in triplicate at eight concentrations (10^–11–10^–4 M). The level of cAMP was measured using frozen recombinant 1321N1 cells expressing the human serotonin 5-HT6R (PerkinElmer). Total cAMP was measured using the LANCE cAMP detection kit (PerkinElmer), according to the manufacturer’s recommendations. For quantification of cAMP levels, 2000 cells/well (5 μL) were incubated with a mixture of compounds (5 μL) for 30 min at room temperature in 384-well white opaque microtiter plate. After incubation, the reaction was stopped and cells were lysed by the addition of 10 μL of working solution (5 μL of Eu-cAMP and 5 μL of ULight-anti-cAMP) for 1 h at room temperature. Time-resolved fluorescence resonance energy transfer (TR-FRET) was detected by an Infinite M1000 Pro (Tecan) using instrument settings from LANCE cAMP detection kit manual. Kb values were calculated from Cheng–Prusoff equation specific for the analysis of functional inhibition curves: Kb = IC50/(1 + A/EC50) where A represents agonist concentration, IC50 the concentration of antagonist producing a 50% reduction in the response to agonist, and EC50 the agonist concentration which causes a half of the maximal response.[44]
# α1A adrenoreceptor = target: T2, α1A adrenoreceptor (Homo sapiens, UniProt P35348); assay: Eurofins Cerep off-target binding, % inhibition at 1 μM
# T2 construct: Eurofins Cerep (contract assay)
# T2 sequence (P35348 1-466): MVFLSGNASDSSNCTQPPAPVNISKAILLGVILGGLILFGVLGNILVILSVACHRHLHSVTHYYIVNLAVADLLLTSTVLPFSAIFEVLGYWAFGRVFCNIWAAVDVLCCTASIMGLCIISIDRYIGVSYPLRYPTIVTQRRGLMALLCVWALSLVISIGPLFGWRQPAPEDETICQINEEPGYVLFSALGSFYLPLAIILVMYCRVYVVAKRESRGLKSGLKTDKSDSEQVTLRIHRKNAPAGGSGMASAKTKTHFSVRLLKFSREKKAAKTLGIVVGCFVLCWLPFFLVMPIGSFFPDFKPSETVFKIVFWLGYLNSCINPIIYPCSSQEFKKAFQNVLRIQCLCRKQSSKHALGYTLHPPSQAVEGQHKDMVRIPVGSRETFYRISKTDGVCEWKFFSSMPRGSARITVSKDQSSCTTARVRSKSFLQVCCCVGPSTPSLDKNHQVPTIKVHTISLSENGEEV
# Protocol: (§1) Additionally, the affinity of compound 27 at the adrenergic α1A, muscarinic M1, histaminergic H1, dopaminergic D3, serotoninergic 5-HT2C, 5-HT3 receptors, serotonin transporter (SERT), and the human ether-a-go-go-related gene (hERG) channel were evaluated in Eurofins Cerep.
# H1 histaminic receptor = target: T3, H1 histaminic receptor (Homo sapiens, UniProt P35367); assay: as above
# T3 construct: Eurofins Cerep (contract assay)
# Protocol: as §1
# [1] = tested on: Salmonella typhimurium TA100; details: without S9 fraction
# Protocol: Ames microplate fluctuation protocol (MPF) assay was performed with Salmonella typhimurium strain TA100, enabling the detection base substitution mutations. Bacterial strain and exposure and indicator medium were purchased from Xenometrix AG (Allschwil, Switzerland). The mutagenic potential of tested structures was evaluated by incubation of bacteria, incapable of producing histidine, with particular concentration of test compounds for 90 min in exposure medium, containing limited amount of histidine. The occurrence of reversion events to histidine prototrophy was observed as a growth of bacteria in the indicator medium without histidine after 48 h of incubation in room temperature. Bacterial growth in 384-well plates was visualized by color change of medium from violet to yellow due to addition of pH indicator dye. Compound was classified as mutagenic, if the fold increase in number of positive wells over the medium control baseline was greater than 2.0. The solvent control baseline was defined as the mean number of positive wells in the negative control sample, increased by one standard deviation. 1% DMSO in media was used as a negative and 4-nitroquinoline N-oxide (NQNO) as positive control. The experiment was performed in triplicate. Fraction S9 was not added.
# Chain of 5-HT6R (P50406 whole entry): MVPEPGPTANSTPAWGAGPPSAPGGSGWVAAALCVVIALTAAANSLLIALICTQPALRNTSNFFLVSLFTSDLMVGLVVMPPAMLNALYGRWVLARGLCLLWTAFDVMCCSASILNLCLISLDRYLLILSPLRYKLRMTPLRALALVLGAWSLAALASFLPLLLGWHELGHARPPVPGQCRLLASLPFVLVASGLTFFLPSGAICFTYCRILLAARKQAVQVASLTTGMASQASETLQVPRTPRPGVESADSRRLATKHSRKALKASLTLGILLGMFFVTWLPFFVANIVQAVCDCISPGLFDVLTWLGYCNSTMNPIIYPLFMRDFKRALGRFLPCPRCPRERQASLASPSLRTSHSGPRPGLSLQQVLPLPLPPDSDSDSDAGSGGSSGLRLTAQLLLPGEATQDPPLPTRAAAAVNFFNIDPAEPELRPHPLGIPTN
# T3 sequence (P35367 whole entry): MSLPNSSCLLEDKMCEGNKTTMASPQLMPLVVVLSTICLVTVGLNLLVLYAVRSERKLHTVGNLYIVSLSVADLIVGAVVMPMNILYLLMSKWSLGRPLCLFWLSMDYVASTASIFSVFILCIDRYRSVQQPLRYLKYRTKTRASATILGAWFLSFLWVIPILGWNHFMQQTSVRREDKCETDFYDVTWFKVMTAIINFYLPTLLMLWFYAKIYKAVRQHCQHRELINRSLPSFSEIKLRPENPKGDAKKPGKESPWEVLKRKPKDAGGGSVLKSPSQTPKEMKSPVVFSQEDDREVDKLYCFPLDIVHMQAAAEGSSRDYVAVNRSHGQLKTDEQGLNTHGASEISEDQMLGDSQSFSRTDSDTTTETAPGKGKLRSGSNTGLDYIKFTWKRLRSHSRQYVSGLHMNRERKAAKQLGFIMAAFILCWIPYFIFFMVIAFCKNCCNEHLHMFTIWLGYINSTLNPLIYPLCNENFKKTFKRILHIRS
# T1 sequence (P10635 whole entry): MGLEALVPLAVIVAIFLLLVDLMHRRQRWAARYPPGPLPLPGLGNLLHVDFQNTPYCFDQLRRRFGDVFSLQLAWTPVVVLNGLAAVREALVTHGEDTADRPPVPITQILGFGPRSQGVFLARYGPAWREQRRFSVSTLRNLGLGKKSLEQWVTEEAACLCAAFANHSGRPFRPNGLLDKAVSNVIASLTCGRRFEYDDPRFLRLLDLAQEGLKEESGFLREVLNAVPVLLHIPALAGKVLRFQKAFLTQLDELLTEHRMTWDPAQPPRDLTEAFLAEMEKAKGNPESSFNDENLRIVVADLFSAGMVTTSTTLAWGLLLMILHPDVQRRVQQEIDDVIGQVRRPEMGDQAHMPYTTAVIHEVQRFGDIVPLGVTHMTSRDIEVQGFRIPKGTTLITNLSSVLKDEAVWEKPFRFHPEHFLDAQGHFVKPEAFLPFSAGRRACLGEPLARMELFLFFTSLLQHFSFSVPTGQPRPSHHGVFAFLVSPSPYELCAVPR
Compound,influence on CYP2D6 activity (CYP2D6),Kb (5-HT6R),inhibition at 1 µM (α1A adrenoreceptor),inhibition at 1 µM (H1 histaminic receptor),mutagenicity (Ames test) [1]
"O=C(N[C@@H]1CCNC1)c1ccn(S(=O)(=O)c2cccc(Cl)c2)c1-c1ccc(F)cc1 [Compound 27, (R)-2-(4-Fluorophenyl)-1-[(3-chlorophenyl)sulfonyl]-N-(pyrrolidin-3-yl)-1H-pyrrole-3-carboxamide]",did not significantly influence,11.4 nM,15%,9%,non-mutagenic
"O=C(N[C@H]1CCNC1)c1ccn(S(=O)(=O)c2cccc(Cl)c2)c1-c1ccc(F)cc1 [Compound 28, (S)-2-(4-Fluorophenyl)-1-[(3-chlorophenyl)sulfonyl]-N-(pyrrolidin-3-yl)-1H-pyrrole-3-carboxamide]",–,7.6 nM,–,–,–
